Measured values published in patent US20220388992A1, “JAK INHIBITOR COMPOUND AND USE THEREOF” (priority 2019, published 2022).

Assays:
Format in all cases: biochemical
TYK2 = molecular target: T1, TYK2 (Homo sapiens, UniProt P29597); assay: TYK2 kinase inhibition, ADP-Glo luminescence assay; details: substrate IRS1
T1 sequence (P29597 871-1187 limits assumed): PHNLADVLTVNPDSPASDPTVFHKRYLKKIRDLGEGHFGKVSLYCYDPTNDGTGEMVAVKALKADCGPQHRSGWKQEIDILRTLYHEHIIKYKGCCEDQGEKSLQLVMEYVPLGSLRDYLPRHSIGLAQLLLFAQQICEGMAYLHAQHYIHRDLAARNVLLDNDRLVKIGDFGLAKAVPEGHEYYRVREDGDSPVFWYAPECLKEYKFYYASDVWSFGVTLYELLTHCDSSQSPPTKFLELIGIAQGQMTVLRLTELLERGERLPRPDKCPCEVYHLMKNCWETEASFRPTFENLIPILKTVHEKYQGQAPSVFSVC
Text: (§1) A drug screening system based on kinases JAK1, JAK2, JAK3, and TYK2 was used to detect the inhibitory ability of small molecule compounds on kinase activity. A kinase undergoes an enzymatic reaction with its substrates IRS 1, IGF1Rtide, and Poly (4:1 Glu, Tyr), consuming ATP to produce ADP, wherein the ADP-Glo reagent and luminescence method were used to detect the amount of the product to reflect the activity of the kinase. 2.1 Experimental Materials and Instruments
(§2) a) Dilute a compound solution to be tested by 5 times with 100% DMSO. […] The final concentration of DMSO is 0.5%. d) Transfer 4 μL of ADP-Glo to the 384-well reaction plate, centrifuge it at 1000 rpm/min for 1 min, and incubate it at 25° C. for 40 min. e) Transfer 8 μL of Detection solution to the 384-well reaction plate, centrifuge it at 1000 rpm/min for 1 min, and incubate it at 25° C. for 40 min. f) Use Biotek multi-function plate reader to read the RLU (Relative luminescence unit) signal. The signal intensity is used to characterize the degree of kinase activity.
(§3) IC50 (half inhibitory concentration) of the compound can be obtained using the following nonlinear fitting formula:
(§4) Y=Bottom+(Top−Bottom)/(1+10^((Log IC50−X)*HillSlope))

JAK3 = molecular target: T2, JAK3 (Homo sapiens, UniProt P52333); assay: JAK3 kinase inhibition, ADP-Glo luminescence assay; details: substrate Poly (4:1 Glu, Tyr)
T2 construct: purchased Carna 08-046
T2 sequence (P52333 795-1124 limits assumed): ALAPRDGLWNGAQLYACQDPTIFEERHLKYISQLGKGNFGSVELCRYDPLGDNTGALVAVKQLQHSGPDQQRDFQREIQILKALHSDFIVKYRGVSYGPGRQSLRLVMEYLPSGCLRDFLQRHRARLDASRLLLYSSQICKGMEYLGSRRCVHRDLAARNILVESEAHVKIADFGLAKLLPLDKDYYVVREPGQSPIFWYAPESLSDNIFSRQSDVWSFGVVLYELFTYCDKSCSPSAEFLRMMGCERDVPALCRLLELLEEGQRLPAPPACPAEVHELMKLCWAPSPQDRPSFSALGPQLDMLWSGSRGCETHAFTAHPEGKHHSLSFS
Text: as §1, §2, §3, §4

JAK2 = JAK2 (Homo sapiens, UniProt O60674); assay: JAK2 kinase inhibition, ADP-Glo luminescence assay; parameters: purchased Carna 08-045; details: substrate IGF1Rtide
Chain of JAK2 (O60674 826-1132 limits assumed): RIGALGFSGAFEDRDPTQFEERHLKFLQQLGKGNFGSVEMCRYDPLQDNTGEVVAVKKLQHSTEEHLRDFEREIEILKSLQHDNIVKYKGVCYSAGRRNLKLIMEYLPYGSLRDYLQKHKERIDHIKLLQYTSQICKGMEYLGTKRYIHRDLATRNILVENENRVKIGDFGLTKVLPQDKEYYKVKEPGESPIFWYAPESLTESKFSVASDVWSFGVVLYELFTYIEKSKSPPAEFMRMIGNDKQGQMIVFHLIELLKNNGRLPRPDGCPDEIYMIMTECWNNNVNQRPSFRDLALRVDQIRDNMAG
Text: as §1, §2, §3, §4

JAK1 = JAK1 (Homo sapiens, UniProt P23458); assay: JAK1 kinase inhibition, ADP-Glo luminescence assay; parameters: purchased Carna 08-144; details: substrate IRS1
Chain of JAK1 (P23458 850-1154 limits assumed): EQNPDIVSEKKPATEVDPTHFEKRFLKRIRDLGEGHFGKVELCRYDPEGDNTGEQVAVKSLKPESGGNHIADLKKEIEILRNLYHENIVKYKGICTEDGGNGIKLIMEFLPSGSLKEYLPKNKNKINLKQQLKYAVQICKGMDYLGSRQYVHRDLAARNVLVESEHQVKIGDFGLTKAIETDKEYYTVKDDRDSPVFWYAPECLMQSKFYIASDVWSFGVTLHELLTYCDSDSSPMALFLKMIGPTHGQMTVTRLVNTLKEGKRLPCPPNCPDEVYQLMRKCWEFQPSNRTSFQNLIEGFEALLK
Text: as §1, §2, §3, §4

SMILES	IC50 (TYK2) [nM]	IC50 (JAK3) [nM]	IC50 (JAK2) [nM]	IC50 (JAK1) [nM]
CCc1cc(O)c(F)cc1-c1ccc2c(-c3nc(CNc4ccccn4)c[nH]3)n[nH]c2c1 [Ex-33, 5-ethyl-2-fluoro-4-(3-(4-((pyridin-2-ylamino)methyl)-1H-imidazol-2-yl)-1H-indazol-6-yl)phenol]	13.3	1.7	1.4	0.58
CCc1cc(O)c(F)cc1-c1ccc2c(-c3nc(CNC(=O)C4CCN(C)C4)c[nH]3)n[nH]c2c1 (stereo not shown) [Ex-29, N-((2-(6-(2-ethyl-5-fluoro-4-hydroxyphenyl)-1H-indazol-3-yl)-1H-imidazol-4-yl)methyl)-1-methylpyrrolidine-3-carboxamide]	16.8	9.3	13.3	1.1
CCc1cc(O)c(F)cc1-c1ccc2c(-c3nc(CN4CC[C@H](O)C4)c[nH]3)n[nH]c2c1 [MDI-306, (S)-1-((2-(6-(2-ethyl-5-fluoro-4-hydroxyphenyl)-1H-indazol-3-yl)-1H-imidazol-4-yl)methyl)pyrrolidin-3-ol]	9.07	0.6	0.428	0.104
CCc1cc(O)c(F)cc1-c1ccc2c(-c3nc(CNC(=O)c4cnc(N5CCOCC5)cn4)c[nH]3)n[nH]c2c1 [MDI-305, N-((2-(6-(2-ethyl-5-fluoro-4-hydroxyphenyl)-1H-indazol-3-yl)-1H-imidazol-4-yl)methyl)-5-morpholinopyrazine-2-carboxamide]	63.8	2.2	1.49	3.18
CCc1cc(O)c(F)cc1-c1ccc2c(-c3nc(CNS(C)(=O)=O)c[nH]3)n[nH]c2c1 [MDI-304, N-((2-(6-(2-ethyl-5-fluoro-4-hydroxyphenyl)-1H-indazol-3-yl)-1H-imidazol-4-yl)methyl)methanesulfonamide]	8.26	0.912	1.32	0.172
CCc1cc(O)c(F)cc1-c1ccc2c(-c3nc(CNC4CCN(C)C4)c[nH]3)n[nH]c2c1 (stereo not shown) [Ex-35, 5-ethyl-2-fluoro-4-(3-(4-(((1-methylpyrrolidin-3-yl)amino)methyl)-1H-imidazol-2-yl)-1H-indazol-6-yl)phenol]	5.2	0.85	0.63	0.32
CCc1cc(O)c(F)cc1-c1ccc2c(-c3nc(CN(C)C(=O)C4CC4)c[nH]3)n[nH]c2c1 [Ex-10, N-((2-(6-(2-ethyl-5-fluoro-4-hydroxyphenyl)-1H-indazol-3-yl)-1H-imidazol-4-yl)methyl)-N-methylcyclopropanecarboxamide]	27	4.5	5.2	1.2
CCc1cc(O)c(F)cc1-c1ccc2c(-c3nc(CNC(=O)c4cnc(N5CCCCC5)cn4)c[nH]3)n[nH]c2c1 [MDI-3, N-((2-(6-(2-ethyl-5-fluoro-4-hydroxyphenyl)-1H-indazol-3-yl)-1H-imidazol-4-yl)methyl)-5-(piperidin-1-yl)pyrazine-2-carboxamide]	32.2	1.41	1.35	1.96
CCc1cc(O)c(F)cc1-c1ccc2c(-c3nc(CNC(=O)N4CCN(C)CC4)c[nH]3)n[nH]c2c1 [Ex-37, N-((2-(6-(2-ethyl-5-fluoro-4-hydroxyphenyl)-1H-indazol-3-yl)-1H-imidazol-4-yl)methyl)-4-methylpiperazine-1-carboxamide]	1.9	0.55	0.66	0.1
CCc1cc(O)c(F)cc1-c1ccc2c(-c3nc(CNS(=O)(=O)C(C)C)c[nH]3)n[nH]c2c1 [Ex-25, N-((2-(6-(2-ethyl-5-fluoro-4-hydroxyphenyl)-1H-indazol-3-yl)-1H-imidazol-4-yl)methyl)propane-2-sulfonamide]	7	2.5	2.8	0.4
CCc1cc(O)c(F)cc1-c1ccc2c(-c3nc(CNC(=O)N4CCOCC4)c[nH]3)n[nH]c2c1 [Ex-36, N-((2-(6-(2-ethyl-5-fluoro-4-hydroxyphenyl)-1H-indazol-3-yl)-1H-imidazol-4-yl)methyl)morpholine-4-carboxamide]	0.83	0.48	0.55	0.11
CCc1cc(O)c(F)cc1-c1ccc2c(-c3nc(CN4CCC(O)CC4)c[nH]3)n[nH]c2c1 [Ex-9, 1-((2-(6-(2-ethyl-5-fluoro-4-hydroxyphenyl)-1H-indazol-3-yl)-1H-imidazol-4-yl)methyl)piperidin-4-ol]	19.8	1.3	1.5	1.3
CCc1cc(O)c(F)cc1-c1ccc2c(-c3nc(CN(C)C(=O)N4CC[C@@H](O)C4)c[nH]3)n[nH]c2c1 [Ex-21, (R)—N-((2-(6-(2-ethyl-5-fluoro-4-hydroxyphenyl)-1H-indazol-3-yl)-1H-imidazol-4-yl)methyl)-3-hydroxy-N-methylpyrrolidine-1-carboxamide]	6.9	0.64	0.72	0.21
CCc1cc(O)c(F)cc1-c1ccc2c(-c3nc(CN4CC5CCC4CC5)c[nH]3)n[nH]c2c1 [Ex-30, 4-(3-(4-((2-azabicyclo[2.2.2]octan-2-yl)methyl)-1H-imidazol-2-yl)-1H-indazol-6-yl)-5-ethyl-2-fluorophenol]	30	4.5	1.8	0.52
CCc1cc(O)c(F)cc1-c1ccc2c(-c3nc(CNC4CCOC4)c[nH]3)n[nH]c2c1 (stereo not shown) [Ex-32, 5-ethyl-2-fluoro-4-(3-(4-(((tetrahydrofuran-3-yl)amino)methyl)-1H-imidazol-2-yl)-1H-indazol-6-yl) phenol]	11.6	1.9	0.89	0.27
CCc1cc(O)c(F)cc1-c1ccc2c(-c3nc(CNC(=O)c4cnn(C)c4)c[nH]3)n[nH]c2c1 [Ex-34, N-((2-(6-(2-ethyl-5-fluoro-4-hydroxyphenyl)-1H-indazol-3-yl)-1H-imidazol-4-yl)methyl)-1-methyl-1H-pyrazole-4-carboxamide]	1.1	0.5	1	0.15
CCc1cc(O)c(F)cc1-c1ccc2c(-c3nc(CNS(=O)(=O)CC)c[nH]3)n[nH]c2c1 [Ex-19, N-((2-(6-(2-ethyl-5-fluoro-4-hydroxyphenyl)-1H-indazol-3-yl)-1H-imidazol-4-yl)methyl)ethanesulfonamide]	6.4	2.3	3.3	0.33
CCc1cc(O)c(F)cc1-c1ccc2c(-c3nc(CNC(=O)N4CC[C@@H](O)C4)c[nH]3)n[nH]c2c1 [Ex-22, (R)—N-((2-(6-(2-ethyl-5-fluoro-4-hydroxyphenyl)-1H-indazol-3-yl)-1H-imidazol-4-yl)methyl)-3-hydroxypyrrolidine-1-carboxamide]	1.1	0.48	0.68	0.14
CCc1cc(O)c(F)cc1-c1ccc2c(-c3nc(CN4CCOCC4)c[nH]3)n[nH]c2c1 [Ex-13, 5-ethyl-2-fluoro-4-(3-(4-(morpholinomethyl)-1H-imidazol-2-yl)-1H-indazol-6-yl)phenol]	11.3	1.7	0.84	0.48
